From publication PMC4912613, “A broad analysis of resistance development in the malaria parasite” (Nature Communications, 2016)

Key:
HepG2 = assay: Hepatocyte toxicity; type: cell-based, human; conditions: for Hepatocyte Toxicity: HepG2; for EC50 fold shift compared to asexual stage: Hepatocyte Toxicity: hepatocyte toxicity / 3D7 EC50; for Liver Stage / Hepatocyte Toxicity: toxicity fold shift for the liver stage (hepatocyte toxicity vs liver stage EC50)
Excerpt: As drugs that eliminate multiple stages of the parasite lifecycle will be critical components in global efforts to eliminate malaria, we were interested in knowing whether the compounds in our study had additional activities against either the liver and/or transmission stages of the parasite lifecycle. To determine this, we first evaluated the compounds in additional phenotypic assays. The first assay was a P. berghei hepatocyte invasion and development assay, which predicts causal prophylactic activity. Hepatocyte toxicity was additionally tested to identify false-positive activity in the liver stage due to host-cell toxicity. Assays were executed in duplicate using a 12-point EC50 curve at starting concentrations of 5 μM or 50 μM (Supplementary Table 1).
Liver-stage activity was determined by pretreating hepatic human cells (HepG2) for 2 h with compound in 1,536-well plates infected with freshly dissected P. berghei sporozoites. After 48 h of incubation, the viability of P. berghei exoerythrocytic forms was measured by luminescence reaction light output using BrightGlo (Promega). Varying levels of compound concentration were used (5 μM or 50 μM) due to the stock concentration supplied.

hsp90 (D88Y, parent Dd2) = assay: Cross-resistance EC50 assay, hsp90; type: cell-based; conditions: Plasmodium falciparum, SYBR green 72 hour assay, synchronized parasites, 384-well format
Excerpt: To evaluate potential overlapping activity against known antimalarial drug targets, we performed dose-response studies with each compound against our assembled set of drug-resistant lines and their corresponding parents, in an asexual blood stage proliferation assay (Table 1). Comparisons were made to the drug-sensitive strain 3D7 when a parent was unavailable (TM90C2A, W2 and Dd2). As laboratories conducted EC50 assays with different strains and protocols, all comparisons were made between assays from the same laboratory and under the same assay conditions. Compounds displaying >5-fold EC50 shifts relative to the parent or sensitive strain were flagged as having potentially non-novel targets. Average fold shifts per strain ranged from 0.82 to 2.34, with a median of 1.23 indicating there was not common resistance to any one resistant clone. No resistance patterns were observed when classifying the compounds based on chemical structure, but this was not surprising given the diversity of compounds chosen. On the other hand, given that these confirmed compounds were derived from larger unconfirmed hit lists to which some filtration criteria may have been applied (for example, elimination of obvious dihydrofolate reductase inhibitors[32]), some[10][11][12][13] pre-existing bias may exist in the set. […]
Alternatively, a SYBR Green-based proliferation approach was used for the 72-h assay, as previously described. Briefly, a culture of either synchronized or asynchronous parasitized RBCs (0.3% parasitemia and 4% haematocrit) in screening medium (identical to supplemented medium above except no serum was added) was exposed to serial drug dilutions. Plates were incubated at 37 °C and gassed with 93% N2, 4% CO2 and 3% O2 for 72 h. Following incubation, 10 × SYBR Green I (Invitrogen; supplied in 10,000 × concentration) in lysis buffer ([…], 5 mM EDTA, 0.16% Saponin wt per vol and 1.6% Triton X vol per vol) was added to the wells and the plates were incubated overnight at room temperature before plate reading. EC50 assays were repeated three times, taking the average EC50 value from each assay set, and removing any outliers using a single iteration of Grubbs' test, eliminating values with z-scores above the critical z-value (α=0.05). The raw EC50 values for synchronized parasites assayed in a 384-well format are listed in Supplementary Data 4. The raw EC50 values for asynchronous parasites assayed in a 96 or 1536-well format are listed in Supplementary Data 5.
EC50 values for each strain were compared with those of the corresponding parent strain to determine fold-shift changes and identify resistance. To minimize the cause variance between assays, all comparisons were conducted between strains assayed under identical conditions. A one-way ANOVA followed by a Dunnet's post-test was conducted in GraphPad Prism to identify significant changes between the parent and resistant strain.

Structure (SMILES)	Hepatocyte Toxicity (HepG2)	EC50 fold shift compared to asexual stage: Hepatocyte Toxicity (HepG2)	Liver Stage / Hepatocyte Toxicity (HepG2)	EC50 (hsp90 (D88Y, parent Dd2); strain HSP90 (Dd2 parent))	EC50 (hsp90 (D88Y, parent Dd2); DD2, HSP90 strain)
OC(CNC1CCCCC1)Cn1c2ccc(I)cc2c2cc(I)ccc21 (centres unmarked) [MMV665882]	13.25 µM	182.26	4.34	0.025 µM	
COCCNCC(O)Cn1c2ccc(Cl)cc2c2cc(Cl)ccc21 (centres unmarked) [MMV019017]	> 5 µM	> 10		0.614 µM	
COc1cc(-c2nc(-c3ccccc3)c(-c3ccccc3)[nH]2)cc(OC)c1O [MMV020750]	> 5 µM	> 15	> 1	0.7 µM	
CCCN(CCC)CC(O)COc1ccccc1C(=O)Nc1ccccc1 (centres unmarked) [MMV006455]	> 5 µM	> 9.4		2.06 µM	
O=C(NCC(CCCN1CCC(c2c[nH]c3ccccc23)CC1)c1ccccc1)Nc1ccc(Cl)c(Cl)c1 (centres unmarked) [MMV029272]	5.366 µM	39.46	2.98	0.71 µM	
CC(NCc1ccccc1)c1cc(Cl)ccc1O (centres unmarked) [MMV665789]	> 5 µM	> 4		0.557 µM	
FC(F)(F)c1cccc(Nc2nc3ccccc3nc2Nc2cccc(C(F)(F)F)c2)c1 [MMV665794]	1.374 µM		3.67	0.14 µM	
O=C(Nc1ccccc1O)c1ccc(Oc2cccc(C(=O)Nc3ccccc3O)c2)cc1 [MMV665888]	4.362 µM	3.60	6.73	0.843 µM	
Nc1ccc(-c2nc3cc(Cc4ccc5[nH]c(-c6ccc(N)cc6)nc5c4)ccc3[nH]2)cc1 [MMV665943]	14.29 µM	45.22	2.40	0.425 µM	
COc1cc(C(=O)ON=C(N)Cc2cccc3ccccc23)cc(OC)c1OC [MMV666687]	31.52 µM		1.50	0.283 µM	
CCCOCc1cc(CN2CCN(c3cccc(Cl)c3)CC2)c(O)c2ncccc12 [MMV000787]	2.43 µM		4.05	0.476 µM	
Cc1ccc(Cn2c(N3CCC(C(=O)NCc4cccs4)CC3)nc3ccccc32)cc1 [MMV007564]	> 6.6 µM	> 57	> 21	0.71 µM	
Nc1ccc(-c2nc3cc(Oc4ccc(Oc5ccc6[nH]c(-c7ccc(N)cc7)nc6c5)cc4)ccc3[nH]2)cc1 [MMV011895]	> 50 µM	> 300		0.311 µM	
c1cncc(-c2cc(N3CCC(CN4CCOCC4)CC3)nc(-c3ccncc3)n2)c1 [MMV668399]	> 50 µM		> 7	0.09 µM	
CCC(C)NCC(O)(c1ccc(Cl)cc1)c1ccc(Cl)cc1 (centres unmarked) [MMV665928]	> 5 µM	> 10		0.501 µM	
Cc1ccc(Oc2ncccc2C(=O)Cc2cccc3cccnc23)c(C)c1 [MMV020746]	31.56 µM	415.26	2.61	0.2 µM	
O=C(Nc1ccsc1C(=O)NC1CCCCC1)c1ccc(F)cc1 [MMV665939]	> 5 µM			2.18 µM	
COc1cc(-c2nc(-c3ccccc3)c(-c3ccccc3)[nH]2)ccc1OCCN(C)C [MMV027496]	13.49 µM	121.53	4.25	0.312 µM	

Structure (SMILES)	Hepatocyte Toxicity (HepG2)	EC50 fold shift compared to asexual stage: Hepatocyte Toxicity (HepG2)	Liver Stage / Hepatocyte Toxicity (HepG2)	EC50 (hsp90 (D88Y, parent Dd2); strain HSP90 (Dd2 parent))	EC50 (hsp90 (D88Y, parent Dd2); DD2, HSP90 strain)
CCOc1cc2c(cc1OCC)C(c1cc(Cl)ccc1O)NCC2 (centres unmarked) [MMV000478]	> 5 µM	> 5		1.05 µM	
CN(C)Cc1ccc(-c2cc3c(-c4ccc(CN(C)C)cc4)ccnc3[nH]2)cc1.O=C(O)C(F)(F)F [MMV022224]	2.32 µM		2.90	0.346 µM	
COc1ccc(-c2nc(NC(=O)Cc3ccc4c(c3)OCCO4)sc2C)cc1 [MMV019719]	20.33 µM	123.96	1.94	0.281 µM	
COC(=O)c1ccc(C2C3=C(O)CC(c4ccc(F)cc4)CC3=Nc3ccccc3N2C(=O)c2ccccc2)cc1 (centres unmarked) [MMV011438]	> 50 µM	> 116	> 80	0.127 µM	
CCN(CC)CCn1c(=N)n(CC(O)c2ccc(Cl)c(Cl)c2)c2ccccc21.Cl (centres unmarked) [MMV000248]	20.64 µM	67.45	3.72	0.328 µM	
c1cc(-c2cnc3ccc(-c4ccc(N5CCOCC5)cc4)nn23)ccn1 [MMV668311]	5.119 µM	106.65	2.27		
Brc1ccc(Nc2nc3ccccc3nc2Nc2ccc(Br)cc2)cc1 [MMV007224]	1.868 µM	8.41	3.63	0.247 µM	
CN(C)S(=O)(=O)c1cc(-c2ccc3nccc(-c4cccc(S(N)(=O)=O)c4)c3c2)cnc1N [MMV024038]	0.1461 µM	0.64	13.52	0.128 µM	
COc1cc2cc(C(=O)Nc3ccccc3)c(N)nc2cc1OC [MMV006767]	> 50 µM			3.1 µM	
Nc1ncc(-c2cn[nH]c2)cc1-c1nc2ccc(F)cc2[nH]1 [MMV023367]	4.228 µM	14.00	6.92	0.491 µM	
CCN(CC)S(=O)(=O)c1ccc(-c2csc(Nc3ccc(C)c(C)c3)n2)cc1 [MMV009108]	> 5 µM	> 5.3	> 1	0.512 µM	
CN1CCN(c2ccc(Nc3c4ccccc4nc4ccccc34)cc2)CC1 [MMV006172]	4.554 µM		2.21	0.139 µM	
Cc1c(C)n(Cc2ccc(F)cc2)c2ccc(C(=O)NCc3ccco3)cc12 [MMV008149]	> 5 µM	> 6.5	> 5.6	0.191 µM	
CC(C)c1cccc(C(NC(=O)C2Cc3ccccc3CN2C(=O)c2cccc(N3CCOCC3)c2)C2CCCC2)c1 (centres unmarked) [MMV028038]	19.24 µM	35.63	3.59	0.432 µM	
COc1ccc(C(=O)C2CC2c2ccc(Cl)cc2)cc1 (centres unmarked) [MMV665924]	> 5 µM	> 6		1.69 µM	
CN(C)CCCN(C)C(=O)C1Cc2cc(-c3ccccc3)ccc2N1S(=O)(=O)c1ccccc1 (centres unmarked) [MMV028895]				0.332 µM	
O=C(Nc1ccc(Cl)c(Cl)c1)Nc1ccc(Cl)c(Cl)c1 [MMV665852]	2.594 µM		7.56	0.893 µM	
COc1ccc2c3c([nH]c2c1)[C@H](CO)N(C(C)=O)CC31CCN(C(=O)Nc2ccccc2F)CC1 [MMV673482]					0.094 µM
